{
  "source": "patent US5298614A",
  "about": "“Size limited double stranded poly I poly(cytidylate/4-thiouridylate)” (Nippon Shinyaku Co. Ltd., priority 1986, dated 1994)",
  "key": {"HeLa S3": {"test_system": "HeLa S3", "test": "Proliferation inhibiting action in nude mice bearing human tumor cells", "type": "in vivo, human tumor cells in nude mice (BALB/c)", "conditions": "test sample 100 μg/mouse i.v., 5-FU 25 mg/kg i.p., twice a week for four weeks", "experimental": "(§1) Each 2.5×10^6 of cell strain HeLa S3 derived from human uterus neck and cell strain Hep-2 derived from throat cancer cells were transplanted under the skin of the nude abdomen of male nude mice 5 weeks old derived from BALB/c and, on the 7th to 10th day after the transplantation, living cohesion of tumor was confirmed. Then 100 μg/mouse of test sample (intravenously) and 25 mg/kg of 5-FU (intraperitoneally) were administered twice a week for four weeks. Tumor was extracted on the fourth week after the admininstration and the weight were measured.\n(§2) The test samples used were the same as that in the above (1)."}, "Hep-2": {"test_system": "Hep-2", "test": "Proliferation inhibiting action in nude mice bearing human tumor cells", "type": "in vivo, human tumor cells in nude mice (BALB/c)", "conditions": "test sample 100 μg/mouse i.v., 5-FU 25 mg/kg i.p., twice a week for four weeks", "experimental": "as §1, §2"}, "[1]": {"test_system": "interleukin 1 (cohesive cells from human peripheral blood)", "test": "Inducing activity of interleukin 1, 3H-thymidine in-take into PHA-stimulated mice thymus cells", "type": "cell-based", "conditions": "samples 100α/ml; interleukin 1 1.25 units/ml; saline control 3370", "quoted_text": "Mononuclear particles were separated from normal human heparin-added peripheral blood by specific gravity centrifugation method using Ficoll-Hypaque (Pharmacia, Ficollpaque, trademark), the numbers were adjusted to 5×10^6 /ml in a 10% FCS-added RPMI medium, placed in a plastic dish, incubated at 37° C. for one hour, and the cohesive cells were used as an interleukin 1-producing source.\nThe sample to be tested was added to the 5×10^5 /ml of single particle, incubated at 37° C. for 24 hours, and the interleukin 1 activity in the supernatant liquid was determined by measuring a ^3 H-thymidine in-take method into a PHA-stimulated mice thymus cells using a proliferation ability of the thymus cells as a target. The control was physiological saline solution."}, "[2]": {"test": "50% melting temperature (Tm) and hyperchromicity, UV absorbance at 260 nm", "type": "physicochemical", "conditions": "neutral condition, aqueous buffer solution containing 0.1M sodium ion", "experimental": "If the stabilization of the double stranded complex formation in nucleic acid polymer is shown with reference to the 50% melting temperature (Tm value), poly I:poly C has a 59.0° C. under a neutral condition in aqueous buffer solution containing 0.1M sodium ion while the SH-substituted nucleic acid derivative containing 4-thiouridine (n=20) and the S-substituted nucleic acid derivative (n=20) have a 59.5° C. and 59.3° C., respectively.\nAmong the nucleic acid derivatives obtained by the above example, those with 50 to 2,000 residue numbers of molecular size distribution were taken and their fusing curves were measured.\nSample I or II (0.7 OD/ml) in 10 mM Tris buffer (pH 7.5) containing 0.1M sodium chloride was warmed, at the rising rate of 2° C./4 minutes, from 20° C. to 90° C., the ultraviolet absorbancy at each temperature was measured at the wavelength of 260 nm, and an increase of ultraviolet absorbancy by a hyperchromicity was represented by a relative ratio giving the state at 20° C. as a base. A Beckmann-DU-8B spectrophotometer was used for the measurement. Melting of the nucleic acid derivatives was gradually observed during 35° C. to 55° C. and, at around 59° C., a sudden fusion curve was obtained. […]"}, "venom phosphodiesterase": {"test_system": "venom phosphodiesterase", "test": "Resistance against hydrolysis, time until hydrolysis arrives at 50%", "type": "in vitro ADME", "conditions": "venom phosphodiesterase enzymatic reaction", "experimental": "Then the resistance against hydrolysis by RNase was compared in terms of the time ratio until the hydrolysis arrives at 50%. Thus, under conditions such as venom phosphodiesterase enzymatic reaction, poly I:poly C was 50 minutes while those of nucleic acid derivatives containing 4-thiouridine (SH group) and its S--S bond (n=20) are 60 minutes and, by contrast, those of nucleic acid derivatives (n=20) containing uridine (OH group) were as short as 20 minutes."}, "Pyrogen test to rabbits": {"test": "Pyrogen test to rabbits", "type": "in vivo", "conditions": "0.2 microgram/kg i.v., 4 hours after injection", "experimental": "Injection of poly I:poly C in vivo has been known to be pyrogenic. […] On the contrary, the nucleic acid derivatives of the present invention (both SH and S--S substances in the above cytotoxic experiment) show only 0.25° C. rise in body temperature on average and the result of the pyrogenic test was negative. In those experiments, three rabbits per group were used and a solution of the sample (0.2 microgram/kg) in 10 ml of physiological saline solution was intravenously injected beneath the ear of the rabbits and the body temperature at 4 hours after the injection was observed."}},
  "note": "Marks after values point to notes of the source that are not given here.",
  "data": [
    {"molecule": "O=c1[nH]cc(F)c(=O)[nH]1", "note": "[5-FU, 5-fluorouracil]", "values": [
      {"measurement": "Inhibition Rate (%)", "setting": "HeLa S3", "value": 47, "unit": "%"},
      {"measurement": "Weight (g) ± S.E. of tumor", "setting": "HeLa S3; control 3.85 ± 0.23", "value": "2.06 ± 0.35", "unit": "g"},
      {"measurement": "Inhibition Rate (%)", "setting": "Hep-2", "value": 30, "unit": "%"},
      {"measurement": "Weight (g) ± S.E. of tumor", "setting": "Hep-2; control 0.88 ± 0.07", "value": "0.56 ± 0.12", "unit": "g"}
    ]},
    {"molecule": "Interleukin 1", "values": [
      {"measurement": "In-Take Amount", "setting": "[1]", "value": "12517 DPM (× 10^4)"}
    ]},
    {"molecule": "polyinosinic acid-polycitydylic acid [poly I:poly C]", "values": [
      {"measurement": "50% melting temperature (Tm value)", "setting": "[2]", "value": 59.0, "unit": "°C"},
      {"measurement": "time until the hydrolysis arrives at 50%", "setting": "venom phosphodiesterase", "value": 50, "unit": "min"},
      {"measurement": "body temperature rise, average", "setting": "Pyrogen test to rabbits", "value": 1.45, "unit": "°C"}
    ]}
  ]
}
